Measured values reported in PubChem BioAssay AID1963871 (Molecular Pharmacology Branch, DTP, NCI, 2024).

Test system: KRAS-mutant PDC multicell tumor spheroid viability
Experiment: Anticancer human tumor 521955-158-R2-J5-PDC patient-derived pancreatic carcinoma cell line growth inhibition [KRAS2]
Details: for viability, T/C: stronger effect = lower value
Excerpt: Multicellular complex tumor spheroid response to RAS pathway inhibitors in combination with a targeted agents in patient-derived cell lines with oncogenic KRAS variants from multiple cancer types
A high-throughput screen of multi-cell type tumor spheroids was designed to identify active combinations of targeted small molecules and KRAS pathway inhibitors. Complex spheroids include a stromal component modeled by human endothelial cells (HUVEC) and fibroblasts modeled by human mesenchymal stem cells (MSCs). The concentration ranges selected for each drug and investigational agent were based upon clinically achievable concentrations if the clinical Cmax of the agent was known.
Compounds. The drugs and investigational agents: BI-3406 (NSC825286), BAY-293 (NSC824723), batoprotafib (TNO155; NSC825523), sotorasib (AMG 510; NSC818433), MRTX1257 (NSC819558), elimusertib (BAY 1895344; NSC800525), molibresib (GSK525762; NSC774829), temuterkib (LY3214996; NSC803410), venetoclax (NSC766270), alisertib (NSC759677), olaparib (NSC753686), talazoparib (NSC767125), erdafitinib (NSC781556), ipatasertib (NSC767898), cabozantinib (NSC761068), nintedanib (NSC756659), abemaciclib (NSC768073), docetaxel (NSC628503), trametinib (NSC758246), and sapanisertib (NSC764658) were obtained from the National Cancer Institute (NCI) Developmental Therapeutics Program Chemical Repository. The FDA-approved anticancer drug set is available from the Developmental Therapeutics Program. […] The stock solutions were prepared in dimethyl sulfoxide (DMSO, Sigma-Aldrich, St. Louis, MO, cat. D2650) at 800-fold the tested concentration and stored at -70 degrees C prior to their use. All drugs and investigational agents were tested over a range starting from a high concentration at or near the clinical Cmax and decreasing in half-log increments. If the clinical Cmax for an agent had not been determined, the highest concentration tested was 10 microM.
Cell Culture. All cells were maintained in an incubator at 37 degrees C and 5% CO2 with 95% humidity. The PDC lines were cultured according to standard operating procedures established by the NCI PDMR (https://pdmr.cancer.gov/sops/default.htm). Briefly, all PDCs were thawed and cultured in Matrigel-coated flasks prepared with a working solution of 1X Ham's F-12 nutrient mix, without supplementation (Invitrogen, Waltham, MA, cat. 11765054), 100 U/mL penicillin-streptomycin (Invitrogen, cat. 15140122), and 2.5% Matrigel (Corning Inc., Corning, NY, cat. 354248) for the first three passages. All PDCs were cultured in complete DMEM/F-12 media containing advanced DMEM/F-12 (Invitrogen, cat. 12634028), 4.9% defined fetal bovine serum, heat inactivated (HyClone Laboratories Inc., Logan, UT, cat. SH30070.03HI), 389 ng/mL hydrocortisone (Sigma-Aldrich, cat. H4001), 9.7 ng/mL human EGF recombinant protein (Invitrogen, cat. PHG0313), 23.4 microg/mL adenine (Sigma-Aldrich, cat. A2786), 97.3 U/mL penicillin-streptomycin (Invitrogen, cat. 15140122), 1.9 mM L-glutamine (Invitrogen, cat. 25030081), and 9.7 microM Y-27632 dihydrochloride (Tocris Bioscience, Bristol, United Kingdom, cat. 1254). The PDCs were cultured in complete DMEM/F12 media without 9.7 microM Y-27632 dihydrochloride for at least two passages prior to the screen. The established cell line HOP-62 was cultured in RPMI 1640 medium, HEPES (Invitrogen, cat. 22400105) with 10% defined fetal bovine serum (HyClone Laboratories Inc., cat. SH30070.03) and 2 mM L-glutamine (Invitrogen, cat. 25030081). The pooled donor HUVEC were cultured in endothelial cell growth medium 2 (PromoCell, Heidelberg, Germany, cat. C-22011) and the hMSC were cultured in mesenchymal stem cell growth medium 2 (PromoCell, cat. C-28009). For all experiments, HUVEC and hMSC were used at passages </=5, while the malignant cell lines were used at passages </=15. […]

[1] = curve of first compound, second compound 0.1 µM
[2] = curve of first compound, second compound 0.316 µM
[3] = curve of first compound, second compound 1 µM
[4] = curve of first compound, second compound 3.16 µM
[5] = curve of first compound, second compound 10 µM
[6] = second compound 0.1 µM, first compound 0.0316 µM
[7] = second compound 0.1 µM, first compound 0.1 µM
[8] = second compound 0.1 µM, first compound 0.316 µM
[9] = second compound 0.1 µM, first compound 1 µM
[10] = second compound 0.1 µM, first compound 3.16 µM
[11] = second compound 0.1 µM, first compound 10 µM
[12] = second compound 0.316 µM, first compound 0.0316 µM
[13] = second compound 0.316 µM, first compound 0.1 µM
[14] = second compound 0.316 µM, first compound 0.316 µM
[15] = second compound 0.316 µM, first compound 1 µM
[16] = second compound 0.316 µM, first compound 3.16 µM
[17] = second compound 0.316 µM, first compound 10 µM
[18] = second compound 1 µM, first compound 0.0316 µM
[19] = second compound 1 µM, first compound 0.1 µM
[20] = second compound 1 µM, first compound 0.316 µM
[21] = second compound 1 µM, first compound 1 µM
[22] = second compound 1 µM, first compound 3.16 µM
[23] = second compound 1 µM, first compound 10 µM
[24] = second compound 3.16 µM, first compound 0.0316 µM
[25] = second compound 3.16 µM, first compound 0.1 µM
[26] = second compound 3.16 µM, first compound 0.316 µM
[27] = second compound 3.16 µM, first compound 1 µM
[28] = second compound 3.16 µM, first compound 3.16 µM
[29] = second compound 3.16 µM, first compound 10 µM
[30] = second compound 10 µM, first compound 0.0316 µM
[31] = second compound 10 µM, first compound 0.1 µM
[32] = second compound 10 µM, first compound 0.316 µM
[33] = second compound 10 µM, first compound 1 µM
[34] = second compound 10 µM, first compound 3.16 µM
[35] = second compound 10 µM, first compound 10 µM
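Further: viability read after seven days of drug exposure.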

Row | Compound | IC50 [1] [nM] | IC50 [2] [nM] | IC50 [3] [nM] | IC50 [4] [nM] | IC50 [5] [nM] | viability, T/C [6] [%] | viability, T/C [7] [%] | viability, T/C [8] [%] | viability, T/C [9] [%] | viability, T/C [10] [%] | viability, T/C [11] [%] | viability, T/C [12] [%] | viability, T/C [13] [%] | viability, T/C [14] [%] | viability, T/C [15] [%] | viability, T/C [16] [%] | viability, T/C [17] [%] | viability, T/C [18] [%] | viability, T/C [19] [%] | viability, T/C [20] [%] | also measured
1 | Cn1nccc1Nc1nccc(-c2cc3c(s2)C(C)(C)N(CCN2CCOCC2)C3=O)n1 + C=CC(=O)N1CCN(c2nc(=O)n(-c3c(C)ccnc3C(C)C)c3nc(-c4c(O)cccc4F)c(F)cc23)C(C)C1 | 1610 | 2020 | 2910 | 2960 | 1010 | 98.9 | 94.9 | 76.9 | 59.4 | 37.9 | 24.2 | 125 | 107 | 76.9 | 58.5 | 47 | 36.7 | 117 | 110 | 85.3 | viability, T/C [21]: 67.5%; viability, T/C [22]: 42.7%; viability, T/C [23]: 47.5%; viability, T/C [24]: 110%; viability, T/C [25]: 116%; viability, T/C [26]: 84.6%; viability, T/C [27]: 64.2%; viability, T/C [28]: 54.1%; viability, T/C [29]: 40.5%; viability, T/C [30]: 78.5%; viability, T/C [31]: 78.1%; viability, T/C [32]: 61.3%; viability, T/C [33]: 52.8%; viability, T/C [34]: 41.1%; viability, T/C [35]: 43.1%
2 | CC(C)NCC(C(=O)N1CCN(c2ncnc3c2C(C)CC3O)CC1)c1ccc(Cl)cc1 (configuration not stated) + C=CC(=O)N1CCN(c2nc(=O)n(-c3c(C)ccnc3C(C)C)c3nc(-c4c(O)cccc4F)c(F)cc23)C(C)C1 | > 10000 | > 10000 | > 10000 | 293 | 134 | 102 | 105 | 77.7 | 78 | 76.5 | 67 | 116 | 100 | 74.4 | 64.4 | 65.3 | 58.6 | 106 | 94.9 | 64.1 | viability, T/C [21]: 54.5%; viability, T/C [22]: 58.2%; viability, T/C [23]: 53.2%; viability, T/C [24]: 94.8%; viability, T/C [25]: 82.8%; viability, T/C [26]: 46.5%; viability, T/C [27]: 43.2%; viability, T/C [29]: 31%; viability, T/C [30]: 69.5%; viability, T/C [31]: 56.2%; viability, T/C [32]: 32.1%; viability, T/C [33]: 19.7%; viability, T/C [34]: 19.2%; viability, T/C [35]: 13.2%
3 | CC(C)NCC(C(=O)N1CCN(c2ncnc3c2C(C)CC3O)CC1)c1ccc(Cl)cc1 (configuration not stated) + COc1cc2nc(C)nc(NC(C)c3cc(N)cc(C(F)(F)F)c3)c2cc1OC1CCOC1 | > 10000 | > 10000 | > 10000 | > 10000 | 197 | 89.3 | 92.2 | 70.4 | 75.2 | 70.9 | 56.4 | 95.9 | 86 | 71.7 | 67.5 | 71 | 60.7 | 81.3 | 86.6 | 60.2 | viability, T/C [21]: 64.1%; viability, T/C [22]: 63.7%; viability, T/C [23]: 60.8%; viability, T/C [24]: 87.3%; viability, T/C [25]: 93.1%; viability, T/C [26]: 72.2%; viability, T/C [27]: 56.8%; viability, T/C [28]: 59.4%; viability, T/C [29]: 43.5%; viability, T/C [30]: 48.7%; viability, T/C [31]: 65.2%; viability, T/C [32]: 43%; viability, T/C [33]: 29.7%; viability, T/C [34]: 14.3%; viability, T/C [35]: 4.84%
4 | CCNC(=O)CC1N=C(c2ccc(Cl)cc2)c2cc(OC)ccc2-n2c(C)nnc21 (configuration not stated) + COc1cc2nc(C)nc(NC(C)c3cc(N)cc(C(F)(F)F)c3)c2cc1OC1CCOC1 | 405 | 293 | 333 | 320 | 418 | 90 | 79.5 | 52.6 | 36.7 | 32.4 | 26.9 | 104 | 89.9 | 47 | 30.8 | 30 | 26.6 | 89.2 | 85.2 | 50.1 | viability, T/C [21]: 34.2%; viability, T/C [22]: 28.2%; viability, T/C [23]: 28%; viability, T/C [24]: 98.5%; viability, T/C [25]: 87.7%; viability, T/C [26]: 48.4%; viability, T/C [27]: 39.6%; viability, T/C [28]: 28%; viability, T/C [29]: 30.8%; viability, T/C [30]: 105%; viability, T/C [31]: 96.5%; viability, T/C [32]: 49.9%; viability, T/C [33]: 33.4%; viability, T/C [34]: 18.6%; viability, T/C [35]: 8.29%
5 | CC(C)n1nc(-c2ccc3oc(N)nc3c2)c2c(N)ncnc21 | – | – | – | – | – | – | – | – | – | – | – | – | – | – | – | – | – | – | – | – | viability, T/C (compound 0.000316 µM): 101% [middle of 5 runs]; viability, T/C (compound 0.001 µM): 87.6% [middle of 5 runs]; viability, T/C (compound 0.00316 µM): 66.9% [middle of 5 runs]; viability, T/C (compound 0.01 µM): 48.9% [middle of 5 runs]; viability, T/C (compound 0.0316 µM): 35.8% [middle of 5 runs]; viability, T/C (compound 0.1 µM): 25.9% [middle of 5 runs]; IC50 (curve of compound): 9.42 nM [middle of 5 runs]
6 | CN(C)C/C=C/C(=O)Nc1cc2c(Nc3ccc(F)c(Cl)c3)ncnc2cc1O[C@H]1CCOC1 | – | – | – | – | – | – | – | – | – | – | – | – | – | – | – | – | – | – | – | – | viability, T/C (compound 0.000316 µM): 105% [middle of 5 runs]; viability, T/C (compound 0.001 µM): 98.6% [middle of 5 runs]; viability, T/C (compound 0.00316 µM): 96.5% [middle of 5 runs]; viability, T/C (compound 0.01 µM): 92.4% [middle of 5 runs]; viability, T/C (compound 0.0316 µM): 87.8% [middle of 5 runs]; IC50 (curve of compound): > 100 nM
